# Test results as given in patent US8637511B2, “Aminopyrimidines useful as kinase inhibitors” (Vertex Pharmaceuticals Incorporated, priority 2005, dated 2014).
# pKi: −log10 of the molar value.
# Biological target: T1, human Itk kinase (Homo sapiens, UniProt Q08881)
# T1 sequence (Q08881 1-620): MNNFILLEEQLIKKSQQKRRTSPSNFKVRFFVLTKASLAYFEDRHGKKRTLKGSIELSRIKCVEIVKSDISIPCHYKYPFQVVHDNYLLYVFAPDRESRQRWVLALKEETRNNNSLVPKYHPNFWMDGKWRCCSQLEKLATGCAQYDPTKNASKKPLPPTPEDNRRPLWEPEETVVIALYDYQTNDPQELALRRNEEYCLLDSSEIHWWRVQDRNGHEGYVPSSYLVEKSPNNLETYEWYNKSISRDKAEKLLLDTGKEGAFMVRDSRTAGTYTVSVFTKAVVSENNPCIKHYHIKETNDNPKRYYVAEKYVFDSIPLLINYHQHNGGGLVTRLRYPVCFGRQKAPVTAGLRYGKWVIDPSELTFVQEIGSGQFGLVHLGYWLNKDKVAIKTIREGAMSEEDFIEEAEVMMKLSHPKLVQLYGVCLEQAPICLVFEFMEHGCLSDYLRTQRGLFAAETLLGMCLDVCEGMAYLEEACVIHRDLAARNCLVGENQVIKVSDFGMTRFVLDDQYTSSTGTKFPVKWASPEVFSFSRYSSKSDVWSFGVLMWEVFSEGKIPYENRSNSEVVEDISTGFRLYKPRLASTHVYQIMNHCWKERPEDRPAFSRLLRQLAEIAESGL
# Assay: Itk inhibition assay: radioactivity-based assay
# Format: biochemical
# Details: Ki(app)
# Outline: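 50 nM Itk with 3 μM SAM68 Δ332-443 peptide and 7.5 μM [γ-33P]ATP in MOPS pH 7.0, MgCl2, 25° C; compound (top 50 μM final, 2-fold dilutions, 2% DMSO) preincubated 10 min, reaction 10 min. Phosphocellulose filter capture and scintillation counting; Ki(app) by non-linear regression of initial rates.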
row,SMILES,pKi
1,CCOC1CN(c2cc(Nc3cc(C)[nH]n3)nc(Sc3ccc(NC(=O)c4ccccc4Cl)cc3)n2)C1 [Compound 37],≥ 7.00
2,Cc1cc(Nc2cc(N3CC(OC(C)C)C3)nc(Sc3ccc(NC(=O)c4ccccc4Cl)cc3)n2)n[nH]1 [Compound 38],≥ 7.00
3,Cc1cc(Nc2cc(N3CC(C)(O)C3)nc(Sc3ccc(NC(=O)c4ccccc4Cl)cc3)n2)[nH]n1 [Compound 50],≥ 7.00
4,COC1(C)CN(c2cc(Nc3cc(C)n[nH]3)nc(Sc3ccc(NC(=O)c4ccccc4Cl)cc3)n2)C1 [Compound 51],≥ 7.00
5,Cc1cc(Nc2cc(N3CCC3)nc(Sc3ccc(NC(=O)Cc4ccccc4Cl)cc3)n2)[nH]n1 [Compound 57],6.00 to 7.00
6,Cc1cc(Nc2cc(N3CCC3)nc(Sc3ccc(NC(=O)c4cnccc4C(F)(F)F)cc3)n2)[nH]n1 [Compound 59],6.00 to 7.00
7,CCC(=O)Nc1ccc(Sc2nc(Nc3cc(C)n[nH]3)cc(N3CC(OC(C)(C)C)C3)n2)cc1 [Compound 67],6.00 to 7.00
8,CCC(=O)Nc1ccc(Sc2nc(Nc3cc(C)n[nH]3)cc(N3CC(N4CCOCC4)C3)n2)cc1 [Compound 68],6.00 to 7.00
9,CC(C)(C)c1cc(Nc2cc(N3CCC3)nc(Sc3ccc(NC(=O)c4ccccc4Cl)cc3)n2)n[nH]1 [Compound 69],5.70 to 6.00
10,COCc1cc(Nc2cc(N3CCC3)nc(Sc3ccc(NC(=O)c4ccccc4Cl)cc3)n2)n[nH]1 [Compound 82],6.00 to 7.00
